These results are taken from patent US20260174778A1, “SULFONAMIDE COMPOUND, AND PREPARATION METHOD THEREFOR AND USE THEREOF” (SHANGHAI HENLIUS BIOTECH, INC., priority 2023, published 2026).

A value given as a limit tells only on which side of the number the result lay.

As a reminder, the IC50 is the concentration needed to halve the response being measured.

The test deals with breast cancer cell line ZR-75-1. The test is described as follows: Inhibition of proliferation of breast cancer cell line ZR-75-1 (CellTiter-Glo). In kind it is cell-based. The following applies: Homo sapiens, 240 h, proliferation of ZR-75-1 cells, 10 days of incubation, read-out: IC50 (KAT6A). From the text:
Test Example 1: Experiment for Determining Inhibitory Effects of Compounds on Proliferation of Breast Cancer Cell Line ZR-75-1
ATP is an indicator of the metabolism of living cells. The CellTiter-Glo® Luminescent Cell Viability Assay is a homogeneous assay method for determining the number of viable cells by quantifying ATP.
• 1) ZR-75-1 (Cell Bank of Chinese Academy of Sciences, TCHul26) • 2) RPMI-1640 medium (Gibco, 11875-093) • 3) Fetal Bovine Serum, New Zealand (Gibco,10091-148) • 4) Penicillin-streptomycin (10,000 U/mL) (Gibco, 15140-122) • 5) Trypsin-EDTA (0.25%), containing phenol red (Gibco, 25200-072) • 6) DPBS (Shanghai BasalMedia, B210KJ) • 7) Corning® 96-well Clear Flat Bottom Ultra-Low Attachment Microplate (Corning, Cat. No. 3474) • 8) 330 μL 96 Holes Deep Well Plate, transparents, 96 Round Holes, V-shaped Bottom, Low Retention (Stellar Scientific, DP33VR-9-NS) • 9) Corning® 96-well solid white flat-bottom polystyrene microplate (Corning, Cat. No. 3917) • 10) CellTiter-Glo® Luminescent Cell Viability Assay (Promega, G7573) • 11) Countstar® BioMed automatic cell counter • 12) Trypan blue solution, 0.4% (Gibco, Cat. No. 15250061) • 13) 37° C. constant-temperature incubator (Thermo, FORMA STERI-CYCLE i160 LK) • 14) Biosafety cabinet (Thermo, 1379)
• 1) The formula of the complete medium for ZR-75-1 was as follows: 500 mL RPMI-1640+10% FBS+1% penicillin-streptomycin. • 2) Thirty minutes before cell plating, the complete medium, serum, trypsin, and DPBS for use in ZR-75-1 cell culture were pre-warmed in a water bath at 37° C. • 3) The ZR-75-1 cells were taken out of the incubator, and the medium was removed by pipetting. The cells were rinsed once with 5 mL of DPBS, and then the DPBS was discarded. • 4) The cells in the T75 culture flask were digested with 1-3 mL of (0.25%) trypsin-EDTA. After the trypsin was added, the culture flask was incubated in an incubator at 37° C. for 2-5 min, and dispersion was confirmed by microscopic examination. Tapping or agitating the culture flask was avoided to prevent disturbing the cells, which might cause cell clumping. • 5) 9 mL of the complete medium was added to terminate the digestion, thus forming a cell suspension, which was then mixed well by pipetting. • 6) Cell suspension counting: 20 μL of the cell suspension was pipetted and diluted with 20 µL of the 0.4% trypan blue solution (Gibco, Cat. No. 15250061). The total cell count and the percentage of cell viability were determined using the Countstar® BioMed automatic cell counter. Only cells with a cell viability of no less than 95% were used for the experiment. • 7) The concentration of the cell suspension was adjusted to 2000 cells/well, and the cell suspension was added to a 96-well cell culture plate at 80 μL/well. Treatment of Cells with Compounds • 1) Twenty-four hours after cell plating, the cell plate was taken out. • 2) Each compound was prepared with a complete medium. The stock solution was a 10 mM solution in DMSO, which was first diluted with the medium to 100 μM, then diluted to 1 μM, and finally subjected to a 5-fold serial dilution across a total of 9 concentration gradients. • 3) 20 μL of the compound diluted with the medium was added to each well of the cell culture plate, which already contained 80 μL of the medium. The final concentration started at 200 nM, followed by a 5-fold serial dilution across a total of 9 concentration gradients. Two replicate wells were set for each compound, and each plate could be used to test 3 compounds, with the DMSO content controlled within 0.5%. • 4) The culture medium was replenished once every three days with a complete medium containing the same concentration of the test compound, with 20 μL/well added each time.
After 10 days of incubation with the compound, the cell culture plate was taken out, and the CellTiter-Glo® reagent was added at 50 μL/well. […]
On the technique in general: In ATP-based viability assays light output follows the ATP content of the culture.

In the case of `COc1ccc2c(c1S(=O)(=O)Nc1noc3cc(Cn4cccn4)c(F)c(OC)c13)OCCC21CCC1` [Compound 72, N-(6-((1H-Pyrazol-1-yl)methyl)-5-fluoro-4-methoxybenzo[d]isoxazol-3-yl)-7-methoxyspiro[chromane-4,1′-cyclobutane]-8-sulfonamide], the IC50 was in the range of 0.5 to 2 nM.
Take `CCc1ccc(OC2CCC2)c(S(=O)(=O)Nc2noc3cc(Cn4cccn4)cc(OC)c23)c1` [Compound 22, N-(6-((1H-Pyrazol-1-yl)methyl)-4-methoxybenzo[d]isoxazol-3-yl)-2-cyclobutoxy-5-ethylbenzenesulfonamide]: the IC50 lay in the range of 2 to 10 nM.
In the case of `COc1cc(Cn2cccn2)cc2onc(NS(=O)(=O)c3cccc4c3OC(F)(F)O4)c12` [Compound 5, N-(6-((1H-Pyrazol-1-yl)methyl)-4-methoxybenzo[d]isoxazol-3-yl)-2,2-difluorobenzo[d][1,3]dioxole-4-sulfonamide], the IC50 is not below 50 nM.
Turning to `COc1ccc2c(c1S(=O)(=O)Nc1noc3cc(Cn4cccn4)cc(Cl)c13)OCCC2(C)C` [Compound 33, N-(6-((1H-Pyrazol-1-yl)methyl)-4-chlorobenzo[d]isoxazol-3-yl)-7-methoxy-4,4-dimethylchromane-8-sulfonamide], the IC50 is 0.5 to 2 nM.
As for `COc1cccc(OC)c1S(=O)(=O)Nc1noc2cc(Cn3cccn3)c(F)c(OC)c12` [PF-0128, reference compound], the figure is 0.5 to 2 nM.
As for `COc1cccc(OC2CCC2)c1S(=O)(=O)Nc1noc2cc(Cn3cccn3)cc(OC)c12` [Compound 21, N-(6-((1H-Pyrazol-1-yl)methyl)-4-methoxybenzo[d]isoxazol-3-yl)-2-cyclobutoxy-6-methoxybenzenesulfonamide], the figure is 2 to 10 nM; as for `CC(C)(C)c1ccc(OC2CCC2)c(S(=O)(=O)Nc2noc3cc(Cn4cccn4)c(C4CC4)cc23)c1` [Compound 8, N-(6-((1H-Pyrazol-1-yl)methyl)-5-cyclopropylbenzo[d]isoxazol-3-yl)-5-(tert-butyl)-2-cyclobutoxybenzenesulfonamide], 10 to 50 nM.
In the case of `COc1c(F)c(Cn2cccn2)cc2onc(NS(=O)(=O)c3c(F)ccc4c3OCCC4(F)F)c12` [Compound 105, N-(6-((1H-Pyrazol-1-yl)methyl)-5-fluoro-4-methoxybenzo[d]isoxazol-3-yl)-4,4,7-trifluorochromane-8-sulfonamide], the IC50 lay within 10 to 50 nM.
As for `COc1ccc2c(c1S(=O)(=O)Nc1noc3cc(Cn4cccn4)cc(Cl)c13)OCCO2` [Compound 34, N-(6-((1H-Pyrazol-1-yl)methyl)-4-chlorobenzo[d]isoxazol-3-yl)-6-methoxy-2,3-dihydrobenzo[b][1,4]dioxine-5-sulfonamide], the figure is 2 to 10 nM; as for `COc1ccc2c(c1S(=O)(=O)Nc1noc3cc(Cn4cccn4)c(F)c(OC)c13)OCCC2(C)C` [Compound 27, N-(6-((1H-Pyrazol-1-yl)methyl)-5-fluoro-4-methoxybenzo[d]isoxazol-3-yl)-7-methoxy-4,4-dimethylchromane-8-sulfonamide], less than 0.5 nM.
As for `COc1cccc(OC)c1S(=O)(=O)Nc1noc2cc(Cn3cccn3)cc(OC)c12` [PF-9363, reference compound], the figure is 0.5 to 2 nM; as for `COc1ccc2c(c1S(=O)(=O)Nc1noc3cc(Cn4cccn4)cc(OC)c13)OCCC21SCCS1` [Compound 39, N-(6-((1H-Pyrazol-1-yl)methyl)-4-methoxybenzo[d]isoxazol-3-yl)-7-methoxyspiro[chromane-4,2′-[1,3]dithiolane]-8-sulfonamide], less than 0.5 nM; as for `COc1ccc2c(c1S(=O)(=O)Nc1noc3cc(Cn4cccn4)cc(Cl)c13)OCCC21CC1` [Compound 46, N-(6-((1H-Pyrazol-1-yl)methyl)-4-chlorobenzo[d]isoxazol-3-yl)-7-methoxyspiro[chromane-4,1′-cyclopropane]-8-sulfonamide], 2 to 10 nM.
As for `COc1cccc(OC)c1S(=O)(=O)Nc1noc2cc(Cn3cccn3)cc(OC(F)F)c12` [Compound 12, N-(6-((1H-Pyrazol-1-yl)methyl)-4-(difluoromethoxy)benzo[d]isoxazol-3-yl)-2,6-dimethoxybenzenesulfonamide], the figure is 2 to 10 nM.
On to `COc1ccc2c(c1S(=O)(=O)Nc1noc3cc(Cn4cccn4)cc(OC)c13)OCCC2(C)C` [Compound 16, N-(6-((1H-Pyrazol-1-yl)methyl)-4-methoxybenzo[d]isoxazol-3-yl)-7-methoxy-4,4-dimethylchromane-8-sulfonamide], for which the IC50 was less than 0.5 nM.
As for `COc1ccc2c(c1S(=O)(=O)Nc1noc3cc(Cn4cccn4)cc(OC)c13)OCCC21CC1` [Compound 35, N-(6-((1H-Pyrazol-1-yl)methyl)-4-methoxybenzo[d]isoxazol-3-yl)-7-methoxyspiro[chromane-4,1′-cyclopropane]-8-sulfonamide], the figure is less than 0.5 nM; as for `COc1ccc2c(c1S(=O)(=O)Nc1noc3cc(Cn4cccn4)cc(OC)c13)OCCC2(F)F` [Compound 102, N-(6-((1H-Pyrazol-1-yl)methyl)-4-methoxybenzo[d]isoxazol-3-yl)-4,4-difluoro-7-methoxychromane-8-sulfonamide], 0.5 to 2 nM; as for `COc1ccc2c(c1S(=O)(=O)Nc1noc3cc(Cn4cccn4)c(Cl)c(OC)c13)OCCC21CC1` [Compound 52, N-(6-((1H-Pyrazol-1-yl)methyl)-5-chloro-4-methoxybenzo[d]isoxazol-3-yl)-7-methoxyspiro[chromane-4,1′-cyclopropane]-8-sulfonamide], not below 50 nM.
The same measure for `COc1ccc2c(c1S(=O)(=O)Nc1noc3cc(Cn4cccn4)cc(Cl)c13)OCCC2=O` [Compound 45, N-(6-((1H-Pyrazol-1-yl)methyl)-4-chlorobenzo[d]isoxazol-3-yl)-7-methoxy-4-oxochromane-8-sulfonamide]: 2 to 10 nM.
The same measure for `COc1ccc2c(c1S(=O)(=O)Nc1noc3cc(Cn4cccn4)c(Cl)c(OC)c13)OCCO2` [Compound 30, N-(6-((1H-Pyrazol-1-yl)methyl)-5-chloro-4-methoxybenzo[d]isoxazol-3-yl)-6-methoxy-2,3-dihydrobenzo[b][1,4]dioxine-5-sulfonamide]: 10 to 50 nM; for `COc1ccc2c(c1S(=O)(=O)Nc1noc3cc(Cn4cccn4)c(F)c(Cl)c13)OCCC2=O` [Compound 48, N-(6-((1H-Pyrazol-1-yl)methyl)-4-chloro-5-fluorobenzo[d]isoxazol-3-yl)-7-methoxy-4-oxochromane-8-sulfonamide]: 0.5 to 2 nM.
For `COc1ccc2c(c1S(=O)(=O)Nc1noc3cc(Cn4cccn4)cc(OC)c13)OCO2` [Compound 17, N-(6-((1H-Pyrazol-1-yl)methyl)-4-methoxybenzo[d]isoxazol-3-yl)-5-methoxybenzo[d][1,3]dioxole-4-sulfonamide], the IC50 was in the range of 0.5 to 2 nM.
The same measure for `COc1ccc2c(c1S(=O)(=O)Nc1noc3cc(Cn4cccn4)cc(OC)c13)OCCC21CCC1` [Compound 15, N-(6-((1H-Pyrazol-1-yl)methyl)-4-methoxybenzo[d]isoxazol-3-yl)-7-methoxyspiro[chromane-4,1′-cyclobutane]-8-sulfonamide]: less than 0.5 nM; for `COc1ccc2c(c1S(=O)(=O)Nc1noc3cc(Cn4cccn4)cc(OC)c13)OCC2(C)C` [Compound 20, N-(6-((1H-Pyrazol-1-yl)methyl)-4-methoxybenzo[d]isoxazol-3-yl)-6-methoxy-3,3-dimethyl-2,3-dihydrobenzofuran-7-sulfonamide]: 0.5 to 2 nM.
